# Assay results reported in patent US7862811B2, “Protease inhibition for prevention or treatment of heart failure” (Regents of the University of Colorado, priority 2004, dated 2011).
# Square brackets hold non-standard residues; d marks the D form. Peptide text beside a SMILES is read from it. * marks the point of attachment. Nle = CCCC[C@H](N)C(=O)O; Cbz = O=C(OCc1ccccc1)*
# What was measured:
# isolated rat hearts [1] = settings: elevated LV end-diastolic pressure without ischemia; cited from earlier work
# MMP = settings: acute pig model, orally-active; cited from earlier work
# [2] = tested on: RV contractile dysfunction from acute RV pressure overload
# Procedure: Pigs were subjected to RV pressure overload by constriction of the main pulmonary artery for 90 min (mean PASP 63 mmHg), followed by 30 min recovery.
# Animal care: Domestic farm pigs (25-40 kg) are sedated with IM injection of ketamine HCl, followed by IV administration of fentanyl or propofol and α-chloralose. In most exemplary protocols, experiments are performed under deep general anesthesia using α-chloralose. Following anesthetic induction, pigs are intubated via tracheotomy and ventilated using a pressure-cycled ventilator. Mechanical respiration is adjusted to maintain physiologic values of arterial pH, pO2, and pCO2. All experiments are non-survival: at the conclusion of each experiment, supplemental α-chloralose is given prior to inducing ventricular fibrillation (KCl 10%, 25 cc infused IV).
# Instrumentation and Hemodynamic Measurements. The experimental preparation is similar to that previously described (51). After exposure via median sternotomy, the heart is instrumented as illustrated in Appendix A.
# For calpain inhibitor experiments, the proximal portion of the right coronary artery is dissected free, fitted with a transit-time ultrasonic flow probe, and cannulated with a 26 g polyethylene catheter as described (52). Digitized hemodynamic data are analyzed as previously described (53) and in Appendix A.
# The purpose of this experiment is to determine whether calpain activation is mechanistically related to the development of RV dysfunction from pressure overload. Open-chest pigs will be instrumented as described. A 26 g polyethylene catheter will be inserted into the right coronary artery. […] The infusion will be begun 30 min prior to beginning pulmonary artery constriction and continued throughout the experiment. Biopsies of the RV myocardium will be obtained, followed by baseline hemodynamic measurements. Pigs will then be subjected to RV pressure overload by constriction of the main pulmonary artery for 90 min. Hemodynamic measurements will be repeated 30 min after relief of pressure overload, and a second set of RV biopsies obtained. […]
# Molt-4 cells = settings: cited from earlier work
# cultured rat lenses = settings: calcium ionophore A23187; cited from earlier work
# [3] = tested on: m-calpain from porcine kidney; settings: cited from earlier work
# isolated rat hearts [4] = settings: global ischemia; cited from earlier work
smiles,measurement,setting,value
CCCC[C@@H](C=O)NC(=O)[C@H](CC(C)C)NC(=O)OCc1ccccc1 [calpeptin],TnI degradation and stunning,isolated rat hearts [1],prevented
NC(=O)C1=C(O)C[C@@H]2C[C@@H]3Cc4cccc(O)c4C(=O)C3=C(O)[C@]2(O)C1=O [COL-3],MMP-mediated lung injury,MMP,prevent
"CC(C)[C@H](NC(=O)OCc1ccccc1)C(=O)N[C@H](C=O)Cc1ccccc1 [MDL-28170, carbobezoxy-valinyl-phenylalaninal] (Cbz-Val-Phe-aldehyde)",attenuation of RV dysfunction resulting from acute RV pressure overload (RVPO),"[2]; 90 min RVPO, 30 min recovery, versus vehicle",more than 50%
same,independent hemodynamic effects,"[2]; pig, in vivo",no independent hemodynamic effects
same,preload-adjusted external work of the RV free wall,"[2]; thirty min after release of pulmonary artery constriction, n=7, p<0.05 vs vehicle",69 % of baseline
"CC(C)C[C@@H](C=O)NC(=O)[C@@H](NS(=O)(=O)c1ccc(F)cc1)C(C)C [SJA6017, N-(4-fluorophenylsulfonyl)-L-valyl-L-leucinal]",cell permeability,Molt-4 cells,cell-permeable
same,nuclear opacity and proteolysis of crystallins and alpha-spectrin,cultured rat lenses,reduced
same,binding to the active site of m-calpain,[3]; casein zymography,reversibly bound
same,inhibition of purified m-calpain,[3]; in vitro,strong inhibition
CCCC[C@@H](C=O)NC(=O)[C@H](CC(C)C)NC(=O)[C@H](CC(C)C)NC(C)=O [calpain inhibitor-1] (Ac-Leu-Leu-[Nle]-aldehyde),cytoskeletal degradation and myocardial stunning,isolated rat hearts [4],attenuates
